Test results reported in US4375542A, “Kijanimicin antibiotics and derivatives thereof” (Schering Corporation, priority 1980, dated 1983).

What was measured:
Peptostreptococcus = experiment: in vitro activity against anaerobic bacteria: Peptostreptococcus; format: cell-based
From the text: (§1) Kijanimicin is also active against strains of anaerobic bacteria other than P. acnes. For example, when tested in vitro, the antibiotic was active against strains of Peptococcus species, Peptostreptococcus and E. lentum.

Peptococcus species = experiment: in vitro activity against anaerobic bacteria: Peptococcus species; format: cell-based
From the text: as §1

[1] = room temperature at pH 2-3
[2] = acute toxicity (LD50) and therapeutic index; format: in vivo
E. lentum = experiment: in vitro activity against anaerobic bacteria: E. lentum; format: cell-based
From the text: as §1

P-388 leukemia = experiment: in vivo anti-tumor test, P-388 leukemia in mice (standard National Cancer Institute test)
Protocol: Anti-tumor activity was determined by the standard National Cancer Institute test which was published in Cancer Chemothr. Rep. 3:1-103 1972.
In the test 10^6 cells per mouse of P-388 leukemia (bleomycin sensitive) is administered intraperitoneally on day 1. The test compound is serially diluted (1/10, 1/100, etc.) and each dilution is administered to a mouse from day 1 to day 9. Animals dying on or before day 5 are listed as toxic deaths. Controls are run using bleomycin and olivomycin A. The results are calculated by the formula in which MST=medium survival time in days;
MST ^T /C=MST-T/MST-Control×100.

Plasmodium berghei = experiment: antimalarial activity in infected CF1 mice; format: in vivo, Plasmodium berghei; CF1 mice; conditions: therapy commenced one day after infection
[3] = anti-inflammatory activity, art recognized test procedures

**Q.** For `COC(=O)N[C@H]1[C@@H](C)O[C@@H](O[C@H]2C/C=C(\C)[C@@H]3C=C[C@@H]4[C@@H](O[C@H]5C[C@@H](O[C@H]6CC(O[C@H]7C[C@H](O)[C@@H](O)[C@H](C)O7)C(O[C@@H]7C[C@@H](O)[C@@H](OC)[C@H](C)O7)[C@H](C)O6)[C@@H](O)[C@H](C)O5)[C@@H](C)C[C@H](C)[C@H]4[C@]3(C)/C(O)=C3\C(=O)O[C@]4(C[C@@H](C)C(CO)=C[C@H]4/C=C/2C)C3=O)C[C@]1(C)[N+](=O)[O-]` (some centres unmarked) [Kijanimicin], which “in vitro activity against Peptostreptococcus” value (Peptostreptococcus) is on record?
**A.** active

**Q.** What about the “in vitro activity against Peptococcus species” value (Peptococcus species) of the same compound?
**A.** active

**Q.** What about the loss of activity [1] of the same compound?
**A.** loses activity rapidly

**Q.** And the “oral LD50” value ([2]; oral)?
**A.** greater than 1000 mg/kg

**Q.** And the “therapeutic index (LD50 / PD50), oral” value ([2]; oral)?
**A.** about 10

**Q.** What about the “subcutaneous LD50” value ([2]; subcutaneous) of the same compound?
**A.** greater than 1000 mg/kg

**Q.** And the “therapeutic index (LD50 / PD50), subcutaneous” value ([2]; subcutaneous)?
**A.** about 10

**Q.** What about the “in vitro activity against E. lentum” value (E. lentum) of the same compound?
**A.** active

**Q.** What about the “anti-tumor activity against P-388 leukemia” value (P-388 leukemia) of the same compound?
**A.** exhibits anti-tumor activity

**Q.** What about the “antiparasitic activity, Plasmodium berghei” value (Plasmodium berghei) of the same compound?
**A.** exhibits antiparasitic activity

**Q.** What about the anti-inflammatory effect [3] of the same compound?
**A.** exhibits an anti-inflammatory effect
